The results in this text go back to patent publication US20230114728A1 (Venatorx Pharmaceuticals, Inc., priority 2019, published 2023).

Converted amounts (≈) assume the structure as drawn. Bounds are passed on as bounds.

The nature of assay [1]: Bocillin-FL fluorescence polarization competition binding assay, A. baumannii PBP3. As to conditions: fluorescence polarization competition binding assay using Bocillin-FL; column 3; read-out: 4. baumannii PBP1a Potency. A digest of the protocol: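 Fluorescence polarization (ex 490/em 520 nm) competition of inhibitors against Bocillin-FL at 0.1 μM, read up to 60 min. Final PBP levels: E. coli PBP3 1.5 μM; A. baumannii PBP2 2.5 μM, PBP3 0.2 μM in Tris pH 8.0/NaCl/glycerol/Tween 20; N. gonorrhoeae PBP2 […] in Hepes pH 8.0/NaCl/glycerol. EC50 = concentration halving PBP-bound Bocillin-FL.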
A general note: In fluorescence polarisation assays a small probe gives low polarisation when free and higher when bound to something large.

A further assay deals with N. gonorrhoeae WHO K. The experiment in a line: Liquid broth MIC in Fastidious broth. It is filed as cell-based. The conditions noted are these: Neisseria gonorrhoeae, read-out: Minimum Inhibitory Concentration, N. gonorrhoeae WHO K. In a few lines:
(§1)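 Mosaic PBP2 producers; colonies from 24 h chocolate agar, saline suspension, OD600. Fastidious broth, 2-fold dilutions, 5×10^5 CFU/mL. ~24 h, 36 °C, 5% CO2; visual MIC, <10% growth cutoff.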

The test system of a further assay is N. gonorrhoeae WHO L. The assay can be described thus: Liquid broth MIC in Fastidious broth. It is filed as cell-based. As to conditions: Neisseria gonorrhoeae; N. gonorrhoeae strain WHO L; Fastidious broth; read-out: Minimum Inhibitory Concentration, N. gonorrhoeae WHO L. In a few lines:
(§2)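 Colonies were swabbed from chocolate agar after 24 h growth and standardised by optical density at 600 nm. Compounds were serially diluted twofold in Fastidious broth, and bacteria added to give 5×10^5 CFU/mL. After about 24 h at 36 °C in 5% CO2, the lowest concentration allowing under 10% growth was taken as MIC.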

Another assay deals with N. gonorrhoeae WHO Z. The experiment in a line: Liquid broth MIC in Fastidious broth. In kind it is cell-based. As to conditions: Neisseria gonorrhoeae, read-out: Minimum Inhibitory Concentration, N. gonorrhoeae WHO Z. In a few lines:
as §1

Assay [2] has as its system N. gonorrhoeae ATCC 49226. The experiment in a line: Liquid broth MIC in Fastidious broth. In kind it is cell-based. As to conditions: Neisseria gonorrhoeae, ATCC49226; N. gonorrhoeae strain ATCC 49226; Fastidious broth; read-out: Minimum Inhibitory Concentration, N. gonorrhoeae ATCC 49226. In a few lines: as §2
In a further assay the test system is N. gonorrhoeae WHO Q. The assay can be described thus: Liquid broth MIC in Fastidious broth. In kind it is cell-based. As to conditions: Neisseria gonorrhoeae, read-out: Minimum Inhibitory Concentration, N. gonorrhoeae WHO Q. A digest of the protocol:
as §1

A further assay has as its system N. gonorrhoeae FA1090. The experiment in a line: Liquid broth MIC in Fastidious broth. In kind it is cell-based. The conditions noted are these: Neisseria gonorrhoeae; N. gonorrhoeae strain FA1090; Fastidious broth; read-out: Minimum Inhibitory Concentration, N. gonorrhoeae FA1090. In a few lines: as §2
The subject of a further assay is N. gonorrhoeae WHO G. The experiment in a line: Liquid broth MIC in Fastidious broth. In kind it is cell-based. The conditions noted are these: Neisseria gonorrhoeae; N. gonorrhoeae strain WHO G; Fastidious broth; read-out: Minimum Inhibitory Concentration, N. gonorrhoeae WHO G. A digest of the protocol: as §2
Another assay concerns N. gonorrhoeae H041. The experiment in a line: Liquid broth MIC in Fastidious broth. In kind it is cell-based. As to conditions: Neisseria gonorrhoeae, H041, read-out: Minimum Inhibitory Concentration, N. gonorrhoeae H041. In a few lines: as §1

For `CCN1CCN(C(=O)NC(C(=O)N[C@H]2Cc3cccc(C(=O)O)c3OB2O)c2cccc(NC(=O)c3ccc(O)c(O)c3Cl)c2)C(=O)C1=O` (stereo partly drawn) [Example 73, (3R)-3-(2-(3-(2-chloro-3,4-dihydroxybenzamido)phenyl)-2-(4-ethyl-2,3-dioxopiperazine-1-carboxamido)acetamido)-2-hydroxy-3,4-dihydro-2H-benzo[e][1,2]oxaborinine-8-carboxylic acid], the EC50 in assay [1] was below 10 µM. The MIC is above 64 mg/L in the assay with N. gonorrhoeae WHO K; above 64 mg/L in the assay with N. gonorrhoeae WHO L; above 64 mg/L in the assay with N. gonorrhoeae WHO Z; above 64 mg/L in assay [2]; above 64 mg/L in the assay with N. gonorrhoeae WHO Q; 1 to 2 mg/L (≈ 1.44 to 2.88 µM) in the assay with N. gonorrhoeae FA1090. For the same molecule, the values for the MIC in the assay on N. gonorrhoeae WHO G and with N. gonorrhoeae H041 were 16 to 32 mg/L (≈ 23.1 to 46.1 µM) and above 64 mg/L, respectively.

Consider `CCN1CCN(C(=O)NC(C(=O)N[C@H]2Cc3cccc(C(=O)O)c3OB2O)c2ccc(O)c(NC(=O)c3ccc(O)c(O)c3Cl)c2)C(=O)C1=O` (stereo partly drawn) [Example 74, (3R)-3-(2-(3-(2-chloro-3,4-dihydroxybenzamido)-4-hydroxyphenyl)-2-(4-ethyl-2,3-dioxopiperazine-1-carboxamido)acetamido)-2-hydroxy-3,4-dihydro-2H-benzo[e][1,2]oxaborinine-8-carboxylic acid], for which, in assay [1], the EC50 is below 10 µM. For the same molecule, the MIC with N. gonorrhoeae WHO K was above 64 mg/L; in the assay on N. gonorrhoeae WHO L, above 64 mg/L; in the assay with N. gonorrhoeae WHO Z, above 64 mg/L; in [2] it was above 64 mg/L; in the assay on N. gonorrhoeae WHO Q, above 64 mg/L; in the assay on N. gonorrhoeae FA1090, 1 to 2 mg/L (≈ 1.41 to 2.82 µM). Further, the MIC is 16 to 32 mg/L (≈ 22.5 to 45.1 µM) in the assay on N. gonorrhoeae WHO G and above 64 mg/L in the assay with N. gonorrhoeae H041.

For `CC(C)(C)[C@@H](NC(=O)N1CCN(CCNC(=O)c2c(F)cc(O)c(O)c2Cl)C(=O)C1=O)C(=O)N[C@H]1Cc2ccc(F)c(C(=O)O)c2OB1O` [Example 80, (R)-3-((R)-2-(4-(2-(2-chloro-6-fluoro-3,4-dihydroxybenzamido)ethyl)-2,3-dioxopiperazine-1-carboxamido)-3,3-dimethylbutanamido)-7-fluoro-2-hydroxy-3,4-dihydro-2H-benzo[e][1,2]oxaborinine-8-carboxylic acid], the EC50 in [1] is below 10 µM. For the same molecule, the MIC in the assay on N. gonorrhoeae WHO K was above 64 mg/L; in the assay with N. gonorrhoeae WHO L, above 64 mg/L; in the assay on N. gonorrhoeae WHO Z, above 64 mg/L; in [2] it was 16 to 32 mg/L (≈ 22.5 to 45.1 µM); in the assay with N. gonorrhoeae WHO Q, above 64 mg/L; with N. gonorrhoeae FA1090, 4 to 8 mg/L (≈ 5.63 to 11.3 µM). The MIC in the assay with N. gonorrhoeae WHO G is 16 to 32 mg/L (≈ 22.5 to 45.1 µM); with N. gonorrhoeae H041 it was above 64 mg/L.
